MIC data for 4 compounds are collected here from US20160113921A1, “COMBINATION THERAPY COMPRISING OXAZOLIDINONE-QUINOLONES FOR USE IN TREATING BACTERIAL INFECTIONS” (MORPHOCHEM AKTIENGESELLSCHAFT FÜR KOMBINATORISCHE CHEMIE, priority 2013, published 2016).

What all share (assay type): cell-based
In assay [1] the test system is E. coli NRZ-00302 (metallo β-lactamase NDM-1). The experiment in a line: MIC, broth microdilution (CLSI), CAMHB. The following applies: Escherichia coli; monosubstance; Ec NRZ00302; read-out: MIC. The method, then: (§1) MIC-testing was done immediately after preparation of the dilutions. All tests were done in duplicate and repeated once on a separate occasion.
(§2) 1 mL of the bacterial suspension was transferred into a tube containing 10 mL CAMHB and was vortexed thoroughly. (S. pneumoniae 1 mL in 10 mL CAMHB+5% lysed horse blood). Columns 1-15 of the 96-well plate were inoculated with 5 μL of this suspension (1-15=antibacterial solution, 16=sterile medium without test item).
(§3) Turbidity was read visually with a mirror.
A general note: Broth dilution looks for growth in wells or tubes with falling amounts of substance.

Assay [2] deals with P. mirabilis NRZ-00185 (AmpC, type CMY-2). In words: MIC, broth microdilution (CLSI), CAMHB. The settings on record: Proteus mirabilis; monosubstance; Pm NRZ00185; read-out: MIC. The procedure:
as §1, §2, §3

Another assay deals with P. mirabilis ATCC 9240. In words: MIC, broth microdilution (CLSI), CAMHB. The following applies: Proteus mirabilis; monosubstance; Pm ATCC9240; read-out: MIC. The method, then:
as §1, §2, §3

Assay [3] deals with K. pneumoniae NRZ-00103 (KPC-2). The experiment in a line: MIC, broth microdilution (CLSI), CAMHB. The settings on record: Klebsiella pneumoniae; monosubstance; Kp NRZ00103; read-out: MIC. The method, then: as §1, §2, §3
For the next assay, the system named is K. pneumoniae ATCC 13883. The experiment in a line: MIC, broth microdilution (CLSI), CAMHB. The settings on record: Klebsiella pneumoniae; monosubstance; Kp ATCC13883; read-out: MIC. The method, then:
as §1, §2, §3

Another assay concerns P. aeruginosa ATCC 10145. In words: MIC, broth microdilution (CLSI), CAMHB. The following applies: Pseudomonas aeruginosa; monosubstance; Pa ATCC10145; read-out: MIC. The method, then:
as §1, §2, §3

The subject of assay [4] is E. cloacae NRZ-00239 (VIM-1). The experiment in a line: MIC, broth microdilution (CLSI), CAMHB. The following applies: Enterobacter cloacae; monosubstance; Ecl NRZ00239; read-out: MIC. The method, then: as §1, §2, §3
Assay [5] concerns P. aeruginosa NRZ-00425 (VIM-1). In words: MIC, broth microdilution (CLSI), CAMHB. The settings on record: Pseudomonas aeruginosa. The method, then: as §1, §2, §3
For assay [6], the system named is E. coli GNS-2601 (ESBL CTX-M-15). The experiment in a line: MIC, broth microdilution (CLSI), CAMHB. The settings on record: Escherichia coli; monosubstance; Ec GNS2601; read-out: MIC. The method, then: as §1, §2, §3
Assay [7] concerns K. pneumoniae NRZ-00002 (OXA-48). In words: MIC, broth microdilution (CLSI), CAMHB. The settings on record: Klebsiella pneumoniae; monosubstance; Kp NRZ00002; read-out: MIC. The procedure:
as §1, §2, §3

The test system of assay [8] is E. coli NRZ-00401 (metallo β-lactamase VIM-1). In words: MIC, broth microdilution (CLSI), CAMHB. The following applies: Escherichia coli; monosubstance; Ec NRZ00401; read-out: MIC. The procedure:
as §1, §2, §3

A further assay deals with E. coli ATCC 25922. The experiment in a line: MIC, broth microdilution (CLSI), CAMHB. The settings on record: Escherichia coli; monosubstance; Ec ATCC25922; read-out: MIC. The method, then:
as §1, §2, §3

Assay [9] has as its system K. pneumoniae NRZ-00535 (VIM-1). The experiment in a line: MIC, broth microdilution (CLSI), CAMHB. The settings on record: Klebsiella pneumoniae; monosubstance; Kp NRZ00535; read-out: MIC. The method, then:
as §1, §2, §3

A further assay concerns E. cloacae ATCC 13047. The experiment in a line: MIC, broth microdilution (CLSI), CAMHB. The settings on record: Enterobacter cloacae; monosubstance; Ecl ATCC13047; read-out: MIC. The method, then:
as §1, §2, §3

Assay [10] relates to Gram-negative test strains (Enterobacteriaceae, non-fermenters). In words: MIC testing, statements on the Gram-negative strain panel. The following applies: all the test strains except P. aeruginosa NRZ-00185 and K. pneumoniae NRZ-00103; read-out: MIC (inhibitory concentration).
Excerpt: as §1

The test system of another assay is E. faecalis V583 (VanB). The experiment in a line: MIC, broth microdilution (CLSI), CAMHB. The settings on record: Enterococcus faecalis. The method, then:
as §1, §2, §3

The subject of assay [11] is S. pneumoniae BAY 19397 (penicillin-, macrolide-, quinolone-resistant). In words: MIC, broth microdilution (CLSI), CAMHB. The following applies: Streptococcus pneumoniae. The method, then: as §1, §2, §3
Another assay relates to S. aureus ATCC 29213. The experiment in a line: MIC, broth microdilution (CLSI), CAMHB. The following applies: Staphylococcus aureus. The method, then:
as §1, §2, §3

In assay [12] the test system is S. aureus ATCC 33593 (MRSA). In words: MIC, broth microdilution (CLSI), CAMHB. The settings on record: Staphylococcus aureus. The method, then: as §1, §2, §3
Assay [13] has as its system S. aureus Visa Mu 50 (MRSA, vancomycin intermediate susceptible). In words: MIC, broth microdilution (CLSI), CAMHB. The following applies: Staphylococcus aureus. The procedure: as §1, §2, §3
Assay [14] relates to S. aureus NRS-119 (MRSA, linezolid- and quinolone-resistant). In words: MIC, broth microdilution (CLSI), CAMHB. The settings on record: Staphylococcus aureus. The method, then:
as §1, §2, §3

Another assay has as its system S. pneumoniae ATCC 33400. In words: MIC, broth microdilution (CLSI), CAMHB. The following applies: Streptococcus pneumoniae. The procedure:
as §1, §2, §3

Another assay relates to E. faecalis ATCC 29212. In words: MIC, broth microdilution (CLSI), CAMHB. The following applies: Enterococcus faecalis. The procedure:
as §1, §2, §3

Another assay concerns E. faecium DSMZ 2146. In words: MIC, broth microdilution (CLSI), CAMHB. The following applies: Enterococcus faecium. The method, then:
as §1, §2, §3

Assay [15] concerns E. faecium UW 3695 (linezolid and quinolone-resistant). In words: MIC, broth microdilution (CLSI), CAMHB. The following applies: Enterococcus faecium. The procedure: as §1, §2, §3
Assay [16] relates to S. aureus DSM 11823, clone 16 (MSSA, quinolone-resistant). In words: microbe, parasite or virus in culture. The settings on record: Staphylococcus aureus. The procedure: as §1, §2, §3
Where [17] appears, read: monosubstance, Ef V583, read-out: MIC.
Where [18] appears, read: monosubstance, Spn 19397, read-out: MIC.
Setting [19] is: monosubstance, Sa ATCC29213, read-out: MIC.
Where [20] appears, read: monosubstance, Sa ATCC33593, read-out: MIC.
Where [21] appears, read: monosubstance, Sa VisaMu50, read-out: MIC.
Where [22] appears, read: monosubstance, Sa NRS119, read-out: MIC.
[23] abbreviates: monosubstance, Spn ATCC33400, read-out: MIC.
Setting [24] is: monosubstance, Ef ATCC29212, read-out: MIC.
Setting [25] is: monosubstance, Efc DSMZ2146, read-out: MIC.
[26] abbreviates: monosubstance, Efc UW3695, read-out: MIC.

Values after ≈ are worked out from the molar mass of the structure shown. Read-outs that look alike come from different tables or passages of the source.

`C[C@@H](O)[C@H]1C(=O)N2C(C(=O)O)=C(SCCN=CN)C[C@H]12` [imipenem]: the MIC in assay [1] worked out at 4 µg/mL (≈ 13.4 µM); in assay [2], 1 µg/mL (≈ 3.34 µM); with P. mirabilis ATCC 9240, 1 µg/mL (≈ 3.34 µM); in assay [3], 32 µg/mL (≈ 107 µM); in the assay on K. pneumoniae ATCC 13883, 0.25 µg/mL (≈ 0.835 µM); in the assay on P. aeruginosa ATCC 10145, 0.5 µg/mL (≈ 1.67 µM). Further, the MIC turned out to be 0.25 µg/mL (≈ 0.835 µM) in assay [4]; 128 µg/mL (≈ 428 µM) in assay [5]; 0.03 µg/mL (≈ 0.1 µM) in assay [6]; 2 µg/mL (≈ 6.68 µM) in assay [7]; 4 µg/mL (≈ 13.4 µM) in assay [8]; 0.03 µg/mL (≈ 0.1 µM) in the assay with E. coli ATCC 25922. The MIC in assay [9] was 8 µg/mL (≈ 26.7 µM); in the assay with E. cloacae ATCC 13047, 0.25 µg/mL (≈ 0.835 µM); in [10], below 8 µg/mL.

Take `COc1c(N2C[C@@H]3CCCN[C@@H]3C2)c(F)cc2c(=O)c(C(=O)O)cn(C3CC3)c12` [moxifloxacin]: the MIC in the assay with E. faecalis V583 (VanB) (setting [17]) stood at 0.25 µg/mL (≈ 0.623 µM); in assay [11] (setting [18]), 4 µg/mL (≈ 9.96 µM); in the assay with S. aureus ATCC 29213 (setting [19]), 0.12 µg/mL (≈ 0.299 µM); in assay [12] (setting [20]), 0.06 µg/mL (≈ 0.149 µM); in [13] (setting [21]), 8 µg/mL (≈ 19.9 µM); in assay [14] (setting [22]), 8 µg/mL (≈ 19.9 µM). Further, the MIC was determined as 0.25 µg/mL (≈ 0.623 µM) in the assay with S. pneumoniae ATCC 33400 (setting [23]), 0.5 µg/mL (≈ 1.25 µM) with E. faecalis ATCC 29212 (setting [24]), 0.5 µg/mL (≈ 1.25 µM) in the assay on E. faecium DSMZ 2146 (setting [25]) and 64 µg/mL (≈ 159 µM) in assay [15] (setting [26]).

For `CO/N=C(\C(=O)N[C@@H]1C(=O)N2C(C(=O)O)=C(CSc3nc(=O)c(=O)[nH]n3C)CS[C@H]12)c1csc(N)n1` [ceftriaxone], the MIC in the assay with E. faecalis V583 (VanB) (setting [17]) is 0.5 µg/mL (≈ 0.902 µM); in assay [11] (setting [18]) it was 4 µg/mL (≈ 7.21 µM); in the assay on S. aureus ATCC 29213 (setting [19]), 4 µg/mL (≈ 7.21 µM); in [12] (setting [20]) it was above 256 µg/mL; in [13] (setting [21]), 16 µg/mL (≈ 28.9 µM); in assay [14] (setting [22]) it was above 256 µg/mL. In addition, the MIC was found to be 0.0075 µg/mL (≈ 0.0135 µM) in the assay on S. pneumoniae ATCC 33400 (setting [23]); 0.5 µg/mL (≈ 0.902 µM) with E. faecalis ATCC 29212 (setting [24]); 0.5 µg/mL (≈ 0.902 µM) with E. faecium DSMZ 2146 (setting [25]); 32 µg/mL (≈ 57.7 µM) in assay [15] (setting [26]); 4 µg/mL (≈ 7.21 µM) in assay [16].

Consider `CN[C@H](CC(C)C)C(=O)N[C@H]1C(=O)N[C@@H](CC(N)=O)C(=O)N[C@H]2C(=O)N[C@H]3C(=O)N[C@H](C(=O)N[C@H](C(=O)O)c4cc(O)cc(O)c4-c4cc3ccc4O)[C@H](O)c3ccc(c(Cl)c3)Oc3cc2cc(c3O[C@@H]2O[C@H](CO)[C@@H](O)[C@H](O)[C@H]2O[C@H]2C[C@](C)(N)[C@H](O)[C@H](C)O2)Oc2ccc(cc2Cl)[C@H]1O` [vancomycin], for which the MIC against E. faecalis V583 (VanB) amounted to 32 µg/mL (≈ 22.1 µM); in [11] it was 0.25 µg/mL (≈ 0.173 µM); in the assay on S. aureus ATCC 29213 (ATCC29213), 0.25 µg/mL (≈ 0.173 µM); in assay [12], 0.5 µg/mL (≈ 0.345 µM); in [13] it was 2 µg/mL (≈ 1.38 µM); in [14] it was 1 µg/mL (≈ 0.69 µM). For the same compound, the MIC in the assay on S. pneumoniae ATCC 33400 (ATCC33400) came to 0.25 µg/mL (≈ 0.173 µM); with E. faecalis ATCC 29212 (ATCC29212), 1 µg/mL (≈ 0.69 µM); against E. faecium DSMZ 2146 (DSMZ2146), 0.25 µg/mL (≈ 0.173 µM); in assay [15], 0.25 µg/mL (≈ 0.173 µM); in [16], 0.015 µg/mL (≈ 0.0104 µM).
